According to PubChem BioAssay (NCI):
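Test compounds were applied to cells in 96-well plates for 48 hours at 5 doses. The concentration for 50% growth inhibition is given as GI50. Definition used: TGI = concentration required for complete inhibition of growth.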

How the values were obtained:
Test in all cases: DTP human tumour cell line panel, 48 h
OVCAR-8 ovarian = system: OVCAR-8 ovarian
IGROV1 ovarian = system: IGROV1 ovarian
M14 melanoma = system: M14 melanoma
RPMI-8226 leukemia = system: RPMI-8226 leukemia
LOX IMVI melanoma = system: LOX IMVI melanoma
COLO 205 colon = system: COLO 205 colon
SF-268 CNS = system: SF-268 CNS
MALME-3M melanoma = system: MALME-3M melanoma
KM12 colon = system: KM12 colon
MDA-N = system: MDA-N
T-47D breast = system: T-47D breast

| Compound | TGI (OVCAR-8 ovarian) [µM] | TGI (IGROV1 ovarian) [µM] | TGI (M14 melanoma) [µM] | TGI (RPMI-8226 leukemia) [µM] | TGI (LOX IMVI melanoma) [µM] | TGI (COLO 205 colon) [µM] | TGI (SF-268 CNS) [µM] | TGI (MALME-3M melanoma) [µM] | TGI (KM12 colon) [µM] | TGI (MDA-N) [µM] | TGI (T-47D breast) [µM] | GI50 (IGROV1 ovarian) [µM] | GI50 (M14 melanoma) [µM] | GI50 (LOX IMVI melanoma) [µM] | GI50 (T-47D breast) [µM] | GI50 (COLO 205 colon) [µM] | GI50 (SF-268 CNS) [µM] | GI50 (MALME-3M melanoma) [µM] | GI50 (KM12 colon) [µM] |
| --- | --- | --- | --- | --- | --- | --- | --- | --- | --- | --- | --- | --- | --- | --- | --- | --- | --- | --- | --- |
| Nc1nc(N)c(N=Nc2ccccc2)c(=O)[nH]1 | > 100 | > 100 | > 100 | > 100 | > 100 | > 100 | > 100 | 69.6 | > 100 | – | – | – | – | – | – | – | – | – | – |
| CC=C/C=C/[C@@H]1O[C@](O)([C@H](CC)C(=O)NC/C=C/C=C(\C)[C@@H](OC)[C@@H](C)[C@@H]2O[C@H](/C=C/C=C/C=C(\C)C(=O)c3c(O)cc[nH]c3=O)[C@H](O)[C@@H]2O)[C@H](O)[C@H](O)C1(C)C | > 100 | > 100 | > 100 | > 100 | – | – | > 100 | > 100 | > 100 | – | – | – | – | – | – | – | – | – | – |
| OCC1NC(CO)C(O)C1O (centres undefined) | > 100 | > 100 | > 100 | > 100 | > 100 | > 100 | – | > 100 | > 100 | > 100 | > 100 | – | – | – | – | – | – | – | – |
| COc1ccc(/C=C/c2cc(O)cc(OC3OC(CO)C(O)C(O)C3O)c2)cc1O (centres undefined) | > 100 | > 100 | > 100 | > 100 | > 100 | > 100 | > 100 | > 100 | 86.5 | > 100 | > 100 | – | – | – | – | – | – | – | – |
| CCOP(=O)(OCC)C(Cc1c[nH]c2ccccc12)C(=O)O (centres undefined) | > 100 | > 100 | > 100 | > 100 | > 100 | > 100 | – | – | – | > 100 | > 100 | – | – | – | – | – | – | – | – |
| COc1ccc(CCn2ccc(C)n2)c(OC)c1 | > 100 | > 100 | > 100 | – | > 100 | > 100 | > 100 | > 100 | > 100 | > 100 | > 100 | – | – | – | – | – | – | – | – |
| O=C(Nc1ccc(C(F)(F)F)cc1[N+](=O)[O-])C(=O)Nn1c(=S)[nH]c2ccccc2c1=O | > 100 | > 100 | – | > 100 | > 100 | > 100 | > 100 | > 100 | > 100 | – | – | – | – | – | – | – | – | – | – |
| COc1ncnc2c(Cl)c(C(O)c3ccccc3)c(Cl)cc12 (centres undefined) | > 100 | > 100 | 89.9 | 66.4 | > 100 | > 100 | 57.7 | 83 | > 100 | 18.7 | > 100 | – | – | – | – | – | – | – | – |
| CC(=O)OC/C=C\Cn1ncc(=O)[nH]c1=O | 66.1 | 42.5 | 46.8 | 31.4 | 13.3 | 37.9 | 36.7 | 31.5 | 31.3 | 31.8 | 69.9 | – | – | – | – | – | – | – | – |
| Fc1ccc(C2CC(c3cccc(Nc4ccncc4)c3)=NN2c2ccccc2)cc1 (centres undefined) | – | 3.49 | 3.71 | – | 3.02 | 4.91 | 3.4 | 3.16 | 3.07 | – | 4.62 | 1.8 | 1.87 | 1.66 | 2.04 | 2.35 | 1.75 | 1.6 | 1.63 |
| Nc1ccc(C2(c3ccc(N)cc3)C3CC4CC(C3)CC2C4)cc1 | 35.5 | 24.1 | 29.9 | – | 39.7 | – | 27.3 | – | 25.3 | 37.6 | 42.8 | – | – | – | – | – | – | – | – |
